Source: patent US12495798B2, “Nicotinamide compound and herbicidal composition comprising compound” (KOREA RESEARCH INSTITUTE OF CHEMICAL TECHNOLOGY, priority 2019, dated 2025)

Assays:
Format in all cases: in vivo
[1] = tested on: fall panicum; assay: Herbicidal activity test against upland field weeds (foliar treatment test); details: Panicum dichotomiflorum, 50 g ai/ha, scale 0-100
How it was run: (§1)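 Visual 0–100 control ratings relative to untreated plants, taken 14 (or 21) days after spraying foliage at 50 or 75 g a.i./ha. Spray solution: 50% acetone with 0.1% Tween-20; plants kept in greenhouse at 30±5 °C, 14 h light/10 h dark.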

[2] = tested on: cocklebur; assay: Herbicidal activity test against upland field weeds (soil treatment test); set-up: key to Soil treatment herbicidal activity, Cocklebur: 0 (no control); 100 (complete control); details: 50 g ai/ha, scale 0 (no control) to 100 (complete control)
How it was run: (§2)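 Weed control scored visually on a 0 (none) to 100 (complete) scale versus untreated pots at 14 or 21 days in greenhouse (30±5 °C, 14 h light). Test compounds, 50 or 75 g a.i./ha in 50% acetone/0.1% Tween-20, hand-sprayed onto soil one day post-sowing.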

[3] = tested on: crabgrass; assay: Herbicidal activity test against upland field weeds (foliar treatment test); details: Digitaria sanguinalis, 50 g ai/ha, scale 0-100
How it was run: as §1

[4] = tested on: bindweed; assay: as above; details: 50 g ai/ha, scale 0-100
How it was run: as §1

[5] = tested on: black nightshade; assay: as above; set-up: key to Foliar treatment herbicidal activity, black nightshade: 0 (no control); 100 (complete control); details: 50 g ai/ha, scale 0-100
How it was run: as §1

[6] = tested on: indian jointvetch; assay: as above; details: 50 g ai/ha, scale 0-100
How it was run: as §1

[7] = tested on: barnyard grass; assay: as above; details: Echinochloa crus-galli, 50 g ai/ha, scale 0-100
How it was run: as §1

[8] = tested on: sorghum; assay: Herbicidal activity test against upland field weeds (soil treatment test); set-up: key to Soil treatment herbicidal activity, Sorghum: 0 (no control); 100 (complete control); details: 50 g ai/ha, scale 0 (no control) to 100 (complete control)
How it was run: as §2

[9] = tested on: fall panicum; assay: as above; set-up: key to Soil treatment herbicidal activity, Fall panicum: 0 (no control); 100 (complete control); details: 50 g ai/ha, scale 0 (no control) to 100 (complete control)
How it was run: as §2

[10] = tested on: wheat; assay: Phytotoxicity test for field crops (soil treatment test); set-up: key: 0 (no harm); 9 (complete withered)
How it was run: (§3)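 Crops sown in sterilized horticultural soil (pH 6.1, organic material 1.0%) with mixed fertilizer (N:P:K=17:21:17); one day after sowing, soil sprayed with compound in 33% acetone/0.1% Tween-20 at 19˜300 g a.i./ha. Greenhouse at 30±5° C, 14/10 h light/dark; injury scored visually 0–9 versus untreated control at 10 and 20 days.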

[11] = tested on: corn; assay: as above; set-up: key: 0 (no harm); 9 (complete withered)
How it was run: as §3

[12] = tested on: rice; assay: as above; set-up: key: 0 (no harm); 9 (complete withered)
How it was run: as §3

[13] = tested on: cotton; assay: as above; set-up: key: 0 (no harm); 9 (complete withered)
How it was run: as §3

[14] = tested on: soybean; assay: as above; set-up: key: 0 (no harm); 9 (complete withered)
How it was run: as §3

[15] = 50 g ai/ha, Wheat (10 days after treatment)
[16] = 50 g ai/ha, Wheat (20 days after treatment)
[17] = 100 g ai/ha, Wheat (10 days after treatment)
[18] = 100 g ai/ha, Wheat (20 days after treatment)
[19] = 50 g ai/ha, Corn (10 days after treatment)
[20] = 50 g ai/ha, Corn (20 days after treatment)
[21] = 100 g ai/ha, Corn (10 days after treatment)
[22] = 100 g ai/ha, Corn (20 days after treatment)
[23] = 50 g ai/ha, Rice (10 days after treatment)
[24] = 50 g ai/ha, Rice (20 days after treatment)
[25] = 100 g ai/ha, Rice (10 days after treatment)
[26] = 100 g ai/ha, Rice (20 days after treatment)
[27] = 50 g ai/ha, Cotton (10 days after treatment)
[28] = 50 g ai/ha, Cotton (20 days after treatment)
[29] = 100 g ai/ha, Cotton (10 days after treatment)
[30] = 100 g ai/ha, Cotton (20 days after treatment)
[31] = 50 g ai/ha, Soybean (20 days after treatment)
[32] = 100 g ai/ha, Soybean (20 days after treatment)

Compound | pest or weed control at 50 g/ha [1] | Soil treatment herbicidal activity, Cocklebur [2] | pest or weed control at 50 g/ha [3] | pest or weed control at 50 g/ha [4] | pest or weed control at 50 g/ha [6] | pest or weed control at 50 g/ha [7] | Soil treatment herbicidal activity, Sorghum [8] | Soil treatment herbicidal activity, Fall panicum [9] | Soil treatment phytotoxicity, Wheat [10, 15] | Soil treatment phytotoxicity, Wheat [10, 16] | Soil treatment phytotoxicity, Wheat [10, 17] | Soil treatment phytotoxicity, Wheat [10, 18] | Soil treatment phytotoxicity, Corn [11, 19] | Soil treatment phytotoxicity, Corn [11, 20] | Soil treatment phytotoxicity, Corn [11, 21] | Soil treatment phytotoxicity, Corn [11, 22] | Soil treatment phytotoxicity, Rice [12, 23] | Soil treatment phytotoxicity, Rice [12, 24] | Soil treatment phytotoxicity, Rice [12, 25] | Soil treatment phytotoxicity, Rice [12, 26] | other results
Cn1nnc(CSCc2nc(C(F)F)ccc2C(=O)Nc2nnnn2C)n1 [Compound No. 2-108, 6-(difluoromethyl)-N-(1-methyl-1H-tetrazol-5-yl)-2-((((2-methyl-2H-tetrazol-5-yl)methyl)thio)methyl)nicotinamide] | 50% | 0 | 60% | 90% | 80% | 60% | 0 | 0 | 0 | 0 | 0 | 0 | 0 | 0 | 0 | 0 | 0 | 0 | 0 | 0 | Foliar treatment herbicidal activity, black nightshade [5]: 100; Soil treatment phytotoxicity, Cotton [13, 27]: 0; Soil treatment phytotoxicity, Cotton [13, 28]: 1; Soil treatment phytotoxicity, Cotton [13, 29]: 0; Soil treatment phytotoxicity, Cotton [13, 30]: 3; Soil treatment phytotoxicity, Soybean [14, 31]: 0; Soil treatment phytotoxicity, Soybean [14, 32]: 3
Cn1nc(COCc2nc(C(F)(F)F)ccc2C(=O)Nc2nnnn2C)nc1Cl [Compound No. 2-135, 2-(((5-chloro-1-methyl-1H-1,2,4-triazol-3-yl)methoxy)methyl)-N-(1-methyl-1H-tetrazol-5-yl)-6-(trifluoromethyl)nicotinamide] | 50% | 0 | 70% | 70% | 95% | 98% | 0 | 0 | 0 | 0 | 0 | 0 | 0 | 0 | 0 | 0 | 6 | 8 | 7 | 8 | pest or weed control at 50 g/ha ([5]; Solanum nigrum): 98%; Soil treatment phytotoxicity, Cotton [13, 27]: 1; Soil treatment phytotoxicity, Cotton [13, 28]: 3; Soil treatment phytotoxicity, Cotton [13, 29]: 1; Soil treatment phytotoxicity, Cotton [13, 30]: 4; Soil treatment phytotoxicity, Soybean ([14]; 50 g ai/ha, Soybean (10 days after treatment)): 0; Soil treatment phytotoxicity, Soybean [14, 31]: 0; Soil treatment phytotoxicity, Soybean ([14]; 100 g ai/ha, Soybean (10 days after treatment)): 2; Soil treatment phytotoxicity, Soybean [14, 32]: 3
